Test results taken from ChEMBL document CHEMBL4392858, “Synthesis and biological evaluation of novel imidazole nucleosides as potential anti-dengue virus agents” (Bioorg Med Chem, 2019).

What was measured:
[1] = Cytotoxicity in BHK cells assessed as reduction in cell viability incubated for 72 hrs by cell count reagent SF based microplate spectrophotometry; conditions: cricetinae
dengue virus type 1 = test: Antiviral activity against Dengue virus 1 DGL2 replicon infected in BHK cells assessed as inhibition of viral replicon RNA replication incubated for 72 hrs by Gaussia-luciferase reporter gene assay; format: functional, organism-based
[2] = Selectivity index, ratio of CC50 for cytotoxicity in BHK cells to IC50 for antiviral activity against Dengue virus 1 DGL2 replicon infected in BHK cells; format: toxicity, cell-based; conditions: hamster, read-out: Ratio CC50/IC50

Compound | CC50 at 72 h [1] | IC50 (dengue virus type 1) | selectivity ratio [2]
C#Cc1c(C(N)=O)ncn1[C@@H]1O[C@H](CO)[C@@H](O)[C@H]1O | 1.24 µM | 0.27 µM | 4.59
NC(=O)c1ncn([C@@H]2O[C@H](CO)[C@@H](O)[C@H]2O)n1 [RIBAVIRIN] | 49 µM | 6.66 µM | 7.35
C#Cc1c(C#N)ncn1[C@@H]1O[C@H](CO)[C@@H](O)[C@H]1O | 3.99 µM | 0.55 µM | 7.25
C#Cc1c(C#N)ncn1[C@@H]1S[C@H](CO)[C@@H](O)[C@H]1O | > 50 µM | 6.57 µM | > 7.61
C#Cc1c(C(N)=O)ncn1[C@@H]1[Se][C@H](CO)[C@@H](O)[C@H]1O | > 50 µM | > 20 µM | –
C#Cc1c(C(N)=O)ncn1[C@@H]1S[C@H](CO)[C@@H](O)[C@H]1O | > 50 µM | 14.6 µM | > 3.42
C#Cc1c(C#N)ncn1[C@@H]1[Se][C@H](CO)[C@@H](O)[C@H]1O | > 50 µM | 22.3 µM | > 2.24
